Reference: patent US10391143B2, “Mitochondrial-derived peptide MOTS3 regulates metabolism and cell survival” (THE REGENTS OF THE UNIVERSITY OF CALIFORNIA, priority 2013, dated 2019)
Ends that are not written are not given here.

How the values were obtained:
Assay type in all cases: in vivo
breast cancer (4T1) = assay: Breast cancer subcutaneous allograft mouse model; settings: 4T1 allograft mice
prostate cancer (22Rv1) = assay: Prostate cancer subcutaneous allograft mouse model; settings: 22Rv1 allograft mice
ZDF diabetic rats = assay: Blood sugar in ZDF diabetic rats after 6 days of treatment; settings: IV daily for 6 days; MOTS-c 1 mg per 400 gram rat
Experimental: FIG. 33 describes Day 6 fasting blood sugars. ZDF diabetic rats were followed until their blood sugar was […], at which point treatment was initiated with one of two doses of MOTS-c or insulin, given IV at 8 AM for 6 days. 6 rats per group were used. Fasting blood sugars were measured after 6-days. ANOVA and student t-tests were used for analysis and p-values.
FIG. 34 describes absolute change in blood glucose at Day 6. In the same experiment described in FIG. 33, absolute changes in blood glucose are shown.

Row | Substance | toxicity as reflected by body weight maintenance (breast cancer (4T1)) | toxicity as reflected by body weight maintenance (prostate cancer (22Rv1)) | absolute change in blood glucose at Day 6 (ZDF diabetic rats)
1 | MRWQEMGYIFYPRKLR [MOTS3, MRWQEMGYIFYPRKLR] | not toxic | not toxic | 
2 | insulin: insulin given IV daily for 6 days as comparator in ZDF diabetic rats |  |  | stabilize their blood sugar at levels similar to baseline
